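Following 48 hours of exposure in 96-well plates, responses at five concentrations were used to interpolate endpoints linearly. GI50 = concentration required for 50% inhibition of growth. The concentration for full growth arrest is given as TGI.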
What was measured:
Test in all cases: inhibition of tumour cell growth, NCI panel, 48 h
TK-10 renal = tested on: TK-10 renal
NCI-H226 lung = tested on: NCI-H226 lung
SK-MEL-2 melanoma = tested on: SK-MEL-2 melanoma
SK-MEL-5 melanoma = tested on: SK-MEL-5 melanoma
IGROV1 ovarian = tested on: IGROV1 ovarian
SF-295 CNS = tested on: SF-295 CNS
MDA-N = tested on: MDA-N
CAKI-1 renal = tested on: CAKI-1 renal
UACC-257 melanoma = tested on: UACC-257 melanoma
HCT-116 colon = tested on: HCT-116 colon
SK-OV-3 ovarian = tested on: SK-OV-3 ovarian
OVCAR-3 ovarian = tested on: OVCAR-3 ovarian
EKVX NSCLC = tested on: EKVX NSCLC
COLO 205 colon = tested on: COLO 205 colon
KM12 colon = tested on: KM12 colon
M14 melanoma = tested on: M14 melanoma

O=C(Oc1ccc(C(c2c(O)c3ccccc3oc2=O)c2c(O)c3ccccc3oc2=O)cc1)c1ccc(C(=O)c2ccccc2)cc1
TGI (TK-10 renal): 37.8 µM
TGI (NCI-H226 lung): 25.9 µM
TGI (SK-MEL-2 melanoma): 35.2 µM
TGI (SK-MEL-5 melanoma): 75 µM
TGI (IGROV1 ovarian): 36.6 µM
TGI (SF-295 CNS): 51.3 µM
TGI (MDA-N): > 100 µM
TGI (CAKI-1 renal): 57.4 µM
TGI (UACC-257 melanoma): 33.9 µM
TGI (HCT-116 colon): > 100 µM
TGI (SK-OV-3 ovarian): 33.4 µM
TGI (OVCAR-3 ovarian): 36.5 µM
TGI (EKVX NSCLC): 34.6 µM
TGI (COLO 205 colon): > 100 µM
TGI (KM12 colon): 30.8 µM

CNc1ccc(C)cc1S(=O)(=O)c1ccccc1[N+](=O)[O-]
TGI (TK-10 renal): > 100 µM
TGI (NCI-H226 lung): > 100 µM
TGI (SK-MEL-2 melanoma): > 100 µM
TGI (SK-MEL-5 melanoma): 46.1 µM
TGI (IGROV1 ovarian): > 100 µM
TGI (SF-295 CNS): > 100 µM
TGI (MDA-N): > 100 µM
TGI (M14 melanoma): > 100 µM
TGI (HCT-116 colon): > 100 µM
TGI (SK-OV-3 ovarian): > 100 µM
TGI (OVCAR-3 ovarian): > 100 µM
TGI (EKVX NSCLC): > 100 µM
TGI (COLO 205 colon): > 100 µM
TGI (KM12 colon): > 100 µM

CC(=O)[CH-]C(=O)c1ccccc1.CC(=O)[CH-]C(=O)c1ccccc1.CC[C@H](CCC(C)[C@H]1CCC2[C@@H]3CC=C4C[C@@H]([O-])CC[C@]4(C)C3CC[C@@]21C)C(C)C.CC[C@H](CCC(C)[C@H]1CCC2[C@@H]3CC=C4C[C@@H]([O-])CC[C@]4(C)C3CC[C@@]21C)C(C)C.Cl.[Ti+4] (stereo partly specified)
TGI (TK-10 renal): > 25 µM
TGI (NCI-H226 lung): > 25 µM
TGI (SK-MEL-2 melanoma): > 25 µM
TGI (SK-MEL-5 melanoma): > 25 µM
TGI (IGROV1 ovarian): > 25 µM
TGI (SF-295 CNS): > 25 µM
TGI (CAKI-1 renal): > 25 µM
TGI (M14 melanoma): > 25 µM
TGI (UACC-257 melanoma): > 25 µM
TGI (HCT-116 colon): > 25 µM
GI50 (SK-OV-3 ovarian): > 25 µM
TGI (SK-OV-3 ovarian): > 25 µM
TGI (OVCAR-3 ovarian): > 25 µM
TGI (EKVX NSCLC): > 25 µM
TGI (COLO 205 colon): > 25 µM
TGI (KM12 colon): > 25 µM

C=CCc1cc(OC)c(O)c(C(=O)/C=C/c2ccc(OC)c(OC)c2)c1
TGI (TK-10 renal): 64.1 µM
TGI (SK-MEL-2 melanoma): 28.8 µM
TGI (SK-MEL-5 melanoma): 36.6 µM
TGI (IGROV1 ovarian): > 100 µM
TGI (SF-295 CNS): 74.1 µM
TGI (CAKI-1 renal): 58.7 µM
TGI (M14 melanoma): 31.7 µM
TGI (UACC-257 melanoma): 37.4 µM
TGI (HCT-116 colon): 27.6 µM
TGI (SK-OV-3 ovarian): 64.9 µM
TGI (OVCAR-3 ovarian): 41.3 µM
TGI (EKVX NSCLC): 52.5 µM
TGI (COLO 205 colon): 31.4 µM
TGI (KM12 colon): 44.9 µM

O=S(=O)(Cc1ccccc1)c1nnc(S(=O)(=O)c2ccc(Cl)cc2)s1
TGI (TK-10 renal): 41.9 µM
TGI (SK-MEL-2 melanoma): 50.7 µM
TGI (SK-MEL-5 melanoma): 33.6 µM
TGI (SF-295 CNS): 54.9 µM
TGI (MDA-N): 33 µM
TGI (CAKI-1 renal): 54 µM
TGI (M14 melanoma): 33.7 µM
TGI (UACC-257 melanoma): 48.8 µM
TGI (HCT-116 colon): 36 µM
TGI (SK-OV-3 ovarian): 47.8 µM
TGI (OVCAR-3 ovarian): 58.6 µM
TGI (EKVX NSCLC): 62 µM
TGI (COLO 205 colon): 36.6 µM
TGI (KM12 colon): > 100 µM

Cc1cc(N(CCC#N)CCC#N)ccc1/C(Sc1ccccc1)=C(\NC(=O)/C=C/c1ccccc1)C(=O)Sc1ccccc1
TGI (TK-10 renal): 25.2 µM
TGI (NCI-H226 lung): 10.7 µM
TGI (SK-MEL-2 melanoma): 16.6 µM
TGI (SK-MEL-5 melanoma): 16.3 µM
TGI (IGROV1 ovarian): 2.78 µM
TGI (SF-295 CNS): 14.7 µM
TGI (CAKI-1 renal): 12.1 µM
TGI (M14 melanoma): 6.3 µM
TGI (UACC-257 melanoma): 25.9 µM
TGI (HCT-116 colon): 9.79 µM
TGI (SK-OV-3 ovarian): 19.8 µM
TGI (OVCAR-3 ovarian): 15.8 µM
TGI (EKVX NSCLC): 54.2 µM
TGI (COLO 205 colon): 7.71 µM
TGI (KM12 colon): 15.3 µM

c1ccc(C2(c3cc4ccccc4[nH]3)OCCO2)nc1
TGI (TK-10 renal): > 100 µM
TGI (NCI-H226 lung): > 100 µM
TGI (SK-MEL-2 melanoma): > 100 µM
TGI (SK-MEL-5 melanoma): > 100 µM
TGI (IGROV1 ovarian): > 100 µM
TGI (SF-295 CNS): > 100 µM
TGI (CAKI-1 renal): > 100 µM
TGI (M14 melanoma): > 100 µM
TGI (UACC-257 melanoma): > 100 µM
TGI (HCT-116 colon): > 100 µM
TGI (SK-OV-3 ovarian): > 100 µM
TGI (OVCAR-3 ovarian): > 100 µM
TGI (EKVX NSCLC): > 100 µM
TGI (COLO 205 colon): > 100 µM
TGI (KM12 colon): > 100 µM

COc1ccc(C[C@@H]2OC3(C=CC(=O)CC3Sc3ccccc3)O[C@H]2Cc2ccc(OC)cc2)cc1 (stereo partly specified)
TGI (TK-10 renal): 3.88 µM
TGI (NCI-H226 lung): 3.33 µM
TGI (SK-MEL-2 melanoma): 3.05 µM
TGI (SK-MEL-5 melanoma): 3.09 µM
TGI (IGROV1 ovarian): 2.13 µM
TGI (SF-295 CNS): 4.69 µM
TGI (MDA-N): 4.98 µM
TGI (CAKI-1 renal): 4.97 µM
TGI (M14 melanoma): 2.75 µM
TGI (UACC-257 melanoma): 3.16 µM
TGI (SK-OV-3 ovarian): 7.84 µM
TGI (OVCAR-3 ovarian): 3.15 µM
TGI (COLO 205 colon): 3.36 µM
TGI (KM12 colon): 5.63 µM

[N-]=[N+]=NC1(Cc2ccccc2)C(=O)Nc2ccccc2C1=O (stereo unspecified)
TGI (TK-10 renal): > 100 µM
TGI (SK-MEL-2 melanoma): > 100 µM
TGI (SK-MEL-5 melanoma): > 100 µM
TGI (IGROV1 ovarian): > 100 µM
TGI (SF-295 CNS): > 100 µM
TGI (CAKI-1 renal): > 100 µM
TGI (M14 melanoma): > 100 µM
TGI (UACC-257 melanoma): > 100 µM
TGI (HCT-116 colon): > 100 µM
TGI (SK-OV-3 ovarian): > 100 µM
TGI (OVCAR-3 ovarian): > 100 µM
TGI (EKVX NSCLC): > 100 µM
TGI (COLO 205 colon): > 100 µM
TGI (KM12 colon): > 100 µM

Cc1cc2c(cc1Cl)SC(NNC(=O)c1ccccc1)=NS2(=O)=O
TGI (TK-10 renal): > 10 µM
TGI (NCI-H226 lung): > 10 µM
TGI (SK-MEL-2 melanoma): > 10 µM
TGI (SK-MEL-5 melanoma): > 10 µM
TGI (IGROV1 ovarian): > 10 µM
TGI (SF-295 CNS): > 10 µM
TGI (CAKI-1 renal): > 10 µM
TGI (M14 melanoma): > 10 µM
TGI (UACC-257 melanoma): > 10 µM
TGI (HCT-116 colon): > 10 µM
TGI (SK-OV-3 ovarian): > 10 µM
TGI (OVCAR-3 ovarian): > 10 µM
TGI (EKVX NSCLC): > 10 µM
TGI (COLO 205 colon): > 10 µM
TGI (KM12 colon): > 10 µM

CCN(CC)CCC(=O)c1ccc(Cl)c(Cl)c1
TGI (NCI-H226 lung): > 100 µM
TGI (SK-MEL-5 melanoma): 35.5 µM
TGI (IGROV1 ovarian): > 100 µM
TGI (SF-295 CNS): > 100 µM
TGI (M14 melanoma): > 100 µM
TGI (UACC-257 melanoma): > 100 µM
TGI (HCT-116 colon): 68.3 µM
TGI (SK-OV-3 ovarian): > 100 µM
TGI (EKVX NSCLC): > 100 µM
TGI (COLO 205 colon): 91.4 µM
TGI (KM12 colon): > 100 µM

COc1ccc(NC(=O)CSc2nc(C)nc3c2sc(=S)n3-c2ccccc2)cc1
TGI (TK-10 renal): > 10 µM
TGI (NCI-H226 lung): > 10 µM
TGI (SK-MEL-5 melanoma): > 10 µM
TGI (IGROV1 ovarian): > 10 µM
TGI (SF-295 CNS): > 10 µM
TGI (MDA-N): > 10 µM
TGI (CAKI-1 renal): > 10 µM
TGI (M14 melanoma): > 10 µM
TGI (UACC-257 melanoma): > 10 µM
TGI (HCT-116 colon): > 10 µM
TGI (SK-OV-3 ovarian): > 10 µM
TGI (OVCAR-3 ovarian): > 10 µM
TGI (EKVX NSCLC): > 10 µM
TGI (COLO 205 colon): > 10 µM
TGI (KM12 colon): > 10 µM

O=C1NC(=S)NC(=O)C1=Cc1ccc([N+](=O)[O-])o1
TGI (TK-10 renal): > 100 µM
TGI (NCI-H226 lung): > 100 µM
TGI (SK-MEL-2 melanoma): > 100 µM
TGI (SK-MEL-5 melanoma): 44.5 µM
TGI (IGROV1 ovarian): 60.1 µM
TGI (SF-295 CNS): > 100 µM
TGI (CAKI-1 renal): 37 µM
TGI (M14 melanoma): 29.5 µM
TGI (UACC-257 melanoma): > 100 µM
TGI (HCT-116 colon): 34 µM
TGI (SK-OV-3 ovarian): > 100 µM
TGI (EKVX NSCLC): 42.8 µM
TGI (COLO 205 colon): 38.2 µM
TGI (KM12 colon): > 100 µM

Cc1ccc(NC(=O)CC(=O)N2N=C(N(c3ccccc3)c3ccccc3)CC2c2ccccc2)cc1 (stereo unspecified)
TGI (TK-10 renal): > 100 µM
TGI (NCI-H226 lung): > 100 µM
TGI (SK-MEL-2 melanoma): > 100 µM
TGI (SK-MEL-5 melanoma): > 100 µM
TGI (IGROV1 ovarian): > 100 µM
TGI (SF-295 CNS): > 100 µM
TGI (CAKI-1 renal): > 100 µM
TGI (M14 melanoma): > 100 µM
TGI (UACC-257 melanoma): > 100 µM
TGI (HCT-116 colon): > 100 µM
TGI (SK-OV-3 ovarian): > 100 µM
TGI (OVCAR-3 ovarian): > 100 µM
TGI (EKVX NSCLC): > 100 µM
TGI (COLO 205 colon): > 100 µM
TGI (KM12 colon): > 100 µM

CCCN(CCCC(NC(C)=O)C(=O)NCc1ccccc1)C(=O)N(C)N=O (stereo unspecified)
TGI (TK-10 renal): > 100 µM
TGI (NCI-H226 lung): > 100 µM
TGI (SK-MEL-2 melanoma): > 100 µM
TGI (SK-MEL-5 melanoma): > 100 µM
TGI (IGROV1 ovarian): > 100 µM
TGI (SF-295 CNS): > 100 µM
TGI (CAKI-1 renal): > 100 µM
TGI (M14 melanoma): > 100 µM
TGI (UACC-257 melanoma): > 100 µM
TGI (HCT-116 colon): > 100 µM
TGI (SK-OV-3 ovarian): > 100 µM
TGI (OVCAR-3 ovarian): > 100 µM
TGI (EKVX NSCLC): > 100 µM
TGI (COLO 205 colon): > 100 µM
TGI (KM12 colon): > 100 µM

Source: PubChem BioAssay (NCI)
